Test results taken from ChEMBL document CHEMBL1201862, “PubChem BioAssay data set” (2004).
The source made the active and inactive calls.

How the values were obtained:
Cytochrome P450 1A2 = molecular target: T1, Cytochrome P450 1A2 (Homo sapiens, UniProt P05177);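 note: PubChem cytochrome P450 panel assay, CYP1A2 panel member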
T1 sequence (P05177 whole entry): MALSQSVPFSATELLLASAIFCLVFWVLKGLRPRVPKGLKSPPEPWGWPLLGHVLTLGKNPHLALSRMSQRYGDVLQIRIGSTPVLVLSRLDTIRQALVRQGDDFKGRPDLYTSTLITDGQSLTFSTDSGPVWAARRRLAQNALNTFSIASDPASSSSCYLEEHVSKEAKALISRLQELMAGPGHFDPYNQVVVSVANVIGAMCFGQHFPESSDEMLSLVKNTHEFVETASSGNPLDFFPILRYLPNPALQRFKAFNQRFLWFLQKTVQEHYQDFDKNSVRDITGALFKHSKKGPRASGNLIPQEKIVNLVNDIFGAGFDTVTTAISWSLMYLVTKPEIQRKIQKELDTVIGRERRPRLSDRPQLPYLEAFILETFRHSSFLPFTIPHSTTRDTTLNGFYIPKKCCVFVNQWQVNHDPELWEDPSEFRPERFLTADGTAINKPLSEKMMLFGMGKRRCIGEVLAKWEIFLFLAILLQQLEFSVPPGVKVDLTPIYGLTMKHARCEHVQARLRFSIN

[1] = molecular target: T2, Heat shock factor protein 1 (Mus musculus, UniProt P38532); assay: inhibition of MG132-induced HSE-luciferase signal, confirmation, cell-based, NIH3T3, luminescence, dose retest (AID 2382); format: functional;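 note: NIH3T3 fibroblasts with HSF1-driven luciferase reporter stressed by proteasome inhibitor MG132; luminescence from HSF1-driven luciferase expression after 8 hours of MG132 stress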
T2 sequence (P38532 whole entry): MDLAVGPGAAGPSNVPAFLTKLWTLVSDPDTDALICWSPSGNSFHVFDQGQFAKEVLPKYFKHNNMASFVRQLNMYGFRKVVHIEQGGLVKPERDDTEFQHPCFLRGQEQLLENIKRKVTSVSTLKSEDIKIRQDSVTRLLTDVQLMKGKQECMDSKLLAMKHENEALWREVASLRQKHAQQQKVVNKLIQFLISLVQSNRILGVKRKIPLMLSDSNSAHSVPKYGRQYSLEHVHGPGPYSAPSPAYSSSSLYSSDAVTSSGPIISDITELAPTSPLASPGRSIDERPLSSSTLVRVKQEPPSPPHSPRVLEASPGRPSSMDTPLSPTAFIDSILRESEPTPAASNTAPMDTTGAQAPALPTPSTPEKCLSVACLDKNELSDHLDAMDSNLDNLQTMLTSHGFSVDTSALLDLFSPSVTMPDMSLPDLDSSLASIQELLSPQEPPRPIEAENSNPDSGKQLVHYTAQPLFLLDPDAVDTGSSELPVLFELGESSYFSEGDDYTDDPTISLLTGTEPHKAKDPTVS

[2] = inhibitors of intracellular T. cruzi replication, confirmation, NIH3T3 host cells, beta-gal luminescence (AID 2044); format: functional, cell-based;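 note: intracellular parasites grown in NIH/3T3 mouse fibroblasts as host cells; luminescent beta-galactosidase reporter signal from transgenic T. cruzi replicating inside host cells; inhibitors lower the luminescence signal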
[3] = cytotoxicity toward NIH3T3 fibroblasts, dose response, counter-screen, cell-based, ATP luminescence, mouse fibroblasts (AID 2010); format: functional;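 note: cells exposed to compound for about 90 hours before reading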
Cytochrome P450 2C19 = Cytochrome P450 2C19 (Homo sapiens, UniProt P33261); assay: Cytochrome panel assay with activity outcomes. Panel member name: p450-cyp2c19 Compounds with AC50 equal or less than 10 uM are considered active; format: functional; settings: read-out: AC50
INS1 = assay: beta cell apoptosis inhibitors, cytokine rescue, dose response, luminescence, retest (AID 449756); format: functional, cell-based; settings: Rattus norvegicus;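 note: cell death triggered by IL-1 beta plus TNF-alpha plus IFN-gamma mixture; protective hits raise ATP signal compared with cytokine alone wells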
Streptococcus = assay: Group A Streptococcus viability loss, dose response, counter-screen for streptokinase expression inhibitor project, luminescence, BacTiterGlo (AID 1915); format: functional, organism-based;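 note: potency for reduction of bacterial viability or growth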
[4] = system: Streptococcus sp. 'group A'; assay: growth inhibition of control SK(-) GAS strain, dose response, counter-screen for streptokinase expression inhibitor project, luminescence, kanamycin, BacTiterGlo, confirmation (AID 1900); format: functional, organism-based
[5] = inhibitors of SNCA 5'UTR-driven reporter translation, confirmation, H4 neuroglioma cells, luminescence (AID 1988); format: functional, cell-based
[6] = inhibitors of firefly luciferase expression or activity, dose response, H4 neuroglioma cells, luminescence (AID 1990); format: functional, cell-based
[7] = Luminescence Cell-Based Dose Response HTS to Identify Inhibitors of 5'UTR Stem-Loop Driven Prion Protein mRNA Translation in H4 Neuroglioblastoma Cells. [Related pubchem assays: 1827 (Project Summary), 1813 (Primary HTS)]; format: functional

Sequence of Cytochrome P450 2C19 (P33261 whole entry): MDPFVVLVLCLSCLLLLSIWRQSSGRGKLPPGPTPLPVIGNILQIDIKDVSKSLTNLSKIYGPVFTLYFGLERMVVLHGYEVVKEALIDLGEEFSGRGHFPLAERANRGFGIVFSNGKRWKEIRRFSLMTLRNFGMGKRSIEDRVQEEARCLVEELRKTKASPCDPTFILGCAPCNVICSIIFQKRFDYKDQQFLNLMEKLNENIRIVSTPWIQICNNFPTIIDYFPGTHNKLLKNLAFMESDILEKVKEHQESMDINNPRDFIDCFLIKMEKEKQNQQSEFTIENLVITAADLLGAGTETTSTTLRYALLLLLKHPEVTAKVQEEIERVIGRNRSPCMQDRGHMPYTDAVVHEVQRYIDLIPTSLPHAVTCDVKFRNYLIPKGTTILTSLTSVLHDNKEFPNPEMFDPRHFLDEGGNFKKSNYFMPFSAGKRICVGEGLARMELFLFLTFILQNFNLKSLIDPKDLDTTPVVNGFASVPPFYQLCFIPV

Structure (SMILES): N=C(N)SCCSC(=N)N
- AC50 (Cytochrome P450 1A2): 2 µM (inconclusive)

Structure (SMILES): Cc1ccc(C(=N)NOC(=O)CN(C)S(=O)(=O)c2ccc(C)cc2)cc1
- EC50 [1]: > 195 µM (not active)

Structure (SMILES): O=S(=O)(c1ccc(Cl)cc1)N1CCCCC1c1cccnc1 (stereo not given)
- EC50 [2]: 0.838 µM (active)
- EC50 [3]: > 60 µM (not active)

Structure (SMILES): CN1CCN(C(=O)/C(=C\c2cccs2)NC(=O)c2ccco2)CC1
- EC50 [1]: > 195 µM (not active)

Structure (SMILES): CCN(c1ccccc1)c1cc(NC)[n+](C)c(C)n1
- AC50 (Cytochrome P450 1A2): 31.6 µM (inconclusive)

Structure (SMILES): CC(C)(O)C#Cc1ccc(CN2CCCC(CO)(Cc3cccc(Cl)c3)C2)cc1 (stereo not given)
- EC50 [2]: 0.455 µM (active)
- EC50 [3]: > 60 µM (not active)

Structure (SMILES): C[C@@H](C(=O)NCCc1c[nH]c2ccccc12)[C@@H]1C[C@@]1(C)[C@@H](NC(=O)OCc1ccccc1)c1ccccc1
- AC50 (Cytochrome P450 1A2): 12.6 µM (inconclusive)

Structure (SMILES): Cc1ccc(-n2cc(CN3CCC(O)(c4ccccn4)CC3)c(-c3ccc(F)cc3)n2)cc1
- EC50 [2]: 3.61 µM (active)
- EC50 [3]: 9.48 µM (active)

Structure (SMILES): CC(C)CCNC(=O)C1CCCN1C(=O)NC1CCCCC1 (stereo not given)
- EC50 [1]: > 195 µM (not active)

Structure (SMILES): COc1cccc(C2C(C(=O)c3cc4ccccc4o3)=C(O)C(=O)N2c2cc(C)on2)c1 (stereo not given)
- EC50 [1]: > 195 µM (not active)

Structure (SMILES): O=C(Cn1cnc([N+](=O)[O-])c1)Nc1cc(Oc2ccc(Cl)cc2Cl)cc([N+](=O)[O-])c1
- EC50 [2]: 1.11 µM (active)
- EC50 [3]: > 60 µM (not active)

Structure (SMILES): COC(=O)[C@@H]1C[C@H]1[C@@H](NC(=O)c1cc(C)nn1C)c1ccccc1
- AC50 (Cytochrome P450 2C19): 39.8 µM (inconclusive)

Structure (SMILES): O=C(Nc1cccnc1)c1cccnc1
- AC50 (INS1): 7.3 µM (active)

Structure (SMILES): O=C(Nc1ccccc1)c1ccc(Nc2c([N+](=O)[O-])cc([N+](=O)[O-])c3ccccc23)cc1
- EC50 [2]: 0.622 µM (active)
- EC50 [3]: > 60 µM (not active)

Structure (SMILES): Clc1ccccc1CN(Cc1ccccc1)c1[nH]cnc2ncnc1-2
- EC50 (Streptococcus): > 150 µM (not active)
- EC50 [4]: 5.85 µM (active)

Structure (SMILES): COc1cc(C(=O)Nc2ccc(-c3nc4cc(C)ccc4o3)c(O)c2)cc(OC)c1OC
- EC50 (Streptococcus): 1.85 µM (active)
- EC50 [4]: 2.35 µM (active)

Structure (SMILES): Cc1ccc(Nc2nc(-c3cccnc3)cs2)cc1Cl
- EC50 [2]: 2.13 µM (active)
- EC50 [3]: > 60 µM (not active)

Structure (SMILES): COC(=O)c1ccc(NC(=S)N(Cc2cccnc2)Cc2ccco2)cc1
- EC50 [2]: 0.534 µM (active)
- EC50 [3]: > 30 µM (not active)

Structure (SMILES): O=C(O)c1ccc(N2C(=O)CC(N3CCN(c4cccc(C(F)(F)F)c4)CC3)C2=O)cc1 (stereo not given)
- EC50 [1]: > 195 µM (not active)

Structure (SMILES): COc1ccc(CN(C)C(=O)c2cc(S(=O)(=O)N3CCOCC3)ccc2N2CCCC2)cc1
- EC50 [1]: > 195 µM (not active)

Structure (SMILES): CCOc1ccc(C(=O)C[n+]2cccc3cc(C)ccc32)cc1
- EC50 [2]: 4.12 µM (active)
- EC50 [3]: > 30 µM (not active)

Structure (SMILES): O=C(Nc1cc2ccccc2oc1=O)C1CCCCC1
- AC50 (Cytochrome P450 2C19): 28.2 µM (inconclusive)
- AC50 (Cytochrome P450 1A2): 2.51 µM (inconclusive)

Structure (SMILES): Cc1cccc(NC(=O)Cn2c(=O)n(Cc3ccco3)c(=N)c3c4c(sc32)COC(C)(C)C4)c1
- EC50 [1]: > 195 µM (not active)

Structure (SMILES): COC(=O)[C@@]1(Cc2ccc(OC)cc2)[C@H]2c3cc(C(=O)N4CCCC4)n(CCc4ccccn4)c3C[C@H]2CN1C(=O)c1ccccc1
- AC50 (Cytochrome P450 2C19): 25.1 µM (inconclusive)

Structure (SMILES): C[C@@H](C(=O)NCc1ccccn1)[C@H]1C[C@]1(C)[C@H](NC(=O)OCc1ccccc1)c1ccccc1
- AC50 (Cytochrome P450 1A2): 25.1 µM (inconclusive)

Structure (SMILES): Cc1ccccc1Cn1ccc(NC(=O)c2cnn3c(C(F)(F)F)cc(-c4ccco4)nc23)n1
- EC50 [1]: 19.1 µM (active)

Structure (SMILES): COc1cccc(CNc2nc(SC)ncc2CO)c1
- EC50 [5]: > 120 µM (not active)
- EC50 [6]: 13.5 µM (active)
- EC50 [7]: 27.1 µM (active)
